The compounds below were run on U-937/GTB (assay: Cytotoxicity against human U937/GTB cells after 72 hrs by fluorometric microculture cytotoxicity assay).
Assay type: functional, cell-based

Point of comparison: CC[C@H](C)[C@@H]1NC(=O)[C@@H]2CCCN2C(=O)[C@H](Cc2c[nH]c3ccccc23)NC(=O)[C@H](CO)NC(=O)[C@@H]2CSSC[C@@H]3NC(=O)[C@H]([C@@H](C)O)NC(=O)[C@H](CCC(=O)O)NC(=O)CNC(=O)[C@@H]4CSSC[C@H](NC(=O)CNC(=O)[C@@H]5CCCN5C(=O)[C@H]([C@@H](C)O)NC(=O)[C@H](CC(N)=O)NC(=O)[C@H](CSSC[C@H](NC1=O)C(=O)N[C@@H]([C@@H](C)O)C(=O)N[C@@H](CCCNC(=N)N)C(=O)N[C@@H](CC(N)=O)C(=O)NCC(=O)N[C@@H](CC(C)C)C(=O)N1CCC[C@H]1C(=O)N[C@@H](C(C)C)C(=O)N4)NC(=O)[C@H]([C@@H](C)O)NC(=O)CNC(=O)CNC(=O)[C@H](C)NC3=O)C(=O)N[C@@H](CO)C(=O)N2, IC50 7.6 µM. Against it:
- CC(C)C[C@@H]1NC(=O)CNC(=O)[C@H](CC(N)=O)NC(=O)[C@H](CCCNC(=N)N)NC(=O)[C@H]([C@@H](C)O)NC(=O)[C@@H]2CSSC[C@@H]3NC(=O)[C@H]([C@@H](C)O)NC(=O)CNC(=O)CNC(=O)[C@H](Cc4ccccc4)NC(=O)[C@@H]4CSSC[C@H](NC(=O)[C@H]([C@@H](C)O)NC(=O)[C@H](CSSC[C@H](NC(=O)[C@H](C(C)C)NC(=O)[C@@H]5CCCN5C1=O)C(=O)NCC(=O)N[C@@H](CCC(=O)O)C(=O)N[C@H]([C@@H](C)O)CN4)NC(=O)CNC(=O)[C@@H]1CCCN1C(=O)[C@H]([C@@H](C)O)NC(=O)[C@H](CC(N)=O)NC3=O)C(=O)N[C@@H](CC(=O)O)C(=O)N1CCC[C@H]1C(=O)N[C@@H](Cc1c[nH]c3ccccc13)C(=O)N1CCC[C@H]1C(=O)N[C@@H](C(C)C)C(=O)N2 — 2.9-fold lower, 2.6 µM
- COc1cccc2c1C(=O)c1c(O)c3c(c(O)c1C2=O)C[C@@](O)(C(=O)CO)C[C@@H]3O[C@H]1C[C@H](N)[C@H](O)[C@H](C)O1 [DOXORUBICIN] — 48-fold lower, 0.16 µM

Reference: ChEMBL document CHEMBL2040805, “Cyclotides from an extreme habitat: characterization of cyclic peptides from Viola abyssinica of the Ethiopian highlands” (J Nat Prod, 2011)
